Patent US5712260A, “Estramustine formulations with improved pharmaceutical properties” (Pharmacia AB, priority 1994, dated 1998)
Counter-ions that a name gives are not always drawn.

Assays:
[1] = Reprecipitation of EPS by calcium chloride in pH 3.1 buffer, EPS in solution assayed by UV spectroscopy (Example 1); assay type: physicochemical; conditions: 640 mcg/ml EPS, pH 3.1 HCl/KCl buffer (I=0.1)
Method: To a solution in a pH 3.1 HCl/KCl buffer (I=0.1), containing 640 mcg/ml of Estramustine-17-phosphate disodium salt (EPS), were added appropriate quantities of calcium chloride in order to have drug:salt molar ratios in the range from 1:0 to 1:1. The samples were filtered and the quantity of Estramustine-17-phosphate sodium salt in solution was assayed by UV spectroscopy.

[2] = EPS in solution after addition of calcium chloride to solution of EPS and cyclodextrin, pH 3.1, UV spectroscopy (Examples 2-4); assay type: physicochemical; conditions: about 1 mg/ml EPS
Method: (§1) The samples were filtered and the quantity of Estramustine-17-phosphate disodium salt in solution was assayed by UV spectroscopy.
as §1, §1

[3] = Solubilization by cyclodextrins of previously formed precipitate of EPS with calcium, pH 3.1, UV spectroscopy (Examples 5-7); assay type: physicochemical; conditions: about 1 mg/ml EPS, CD added to preformed precipitate
Method: The samples were filtered and the quantity of Estramustine disodium salt in solution was assayed by UV spectroscopy.
as §1, §1

[4] = Solubility / reprecipitation of estramustine derivative with cyclodextrins (general statements); assay type: physicochemical; conditions: for effects of reprecipitation induced by cations: calcium or other cations
[5] = oral administration; interaction with foods and drinks; cited from earlier work

Compound | EPS in solution ([1]; EPS:CaCl2 molar ratio 1:0) [%] | EPS in solution ([1]; EPS:CaCl2 molar ratio 1:0.25) [%] | EPS in solution ([1]; EPS:CaCl2 molar ratio 1:0.5) [%] | EPS in solution ([1]; EPS:CaCl2 molar ratio 1:1) [%] | EPS in solution ([2]; EPS:CD:CaCl2 molar ratio 1:0:1 (no CD)) [%] | EPS in solution ([2]; EPS:CD:CaCl2 molar ratio 1:0:2 (no CD)) [%] | EPS in solution ([2]; EPS:CD:CaCl2 molar ratio 1:0:4 (no CD)) [%] | EPS in solution ([3]; EPS:CaCl2:CD molar ratio 1:1:0 (no CD)) [%] | EPS in solution ([3]; EPS:CaCl2:CD molar ratio 1:2:0 (no CD)) [%] | EPS in solution ([3]; EPS:CaCl2:CD molar ratio 1:4:0 (no CD)) [%] | solubility of the drug itself ([4]; when mixed with cyclodextrins) | effects of reprecipitation induced by cations ([4]; with cyclodextrins, disodium salt) | reprecipitation of the drug [5] | effect of reprecipitation by anionic species ([4]; with cyclodextrins) | redissolution of already formed precipitate with calcium ([4]; with cyclodextrins) | passage in solution of the drug in the presence of calcium ions ([4]; with cyclodextrins, calcium ions in dissolution medium) | effects of reprecipitation induced by cations ([4]; with cyclodextrins)
C[C@]12CC[C@@H]3c4ccc(OC(=O)N(CCCl)CCCl)cc4CC[C@H]3[C@@H]1CC[C@@H]2OP(=O)(O)O [EPS, Estramustine-17-phosphate disodium salt] | 100 | 42 | 21 | 14 | 16 | 4 | 4 | 16 | 4 | 4 | does not change in a significant way | quite negligible | induced by cations and in particular by calcium ions |  |  |  | 
C[C@H](N)C(=O)O[C@H]1CC[C@H]2[C@@H]3CCc4cc(OC(=O)N(CCCl)CCCl)ccc4[C@H]3CC[C@]12C [Estramustine-17-L-alaninate] |  |  |  |  |  |  |  |  |  |  |  |  | induced by anionic species, such as chlorine ions | avoiding any effect of reprecipitation by anionic species |  |  | 
C[C@]12CC[C@@H]3c4ccc(OC(=O)N(CCCl)CCCl)cc4CC[C@H]3[C@@H]1CC[C@@H]2OP(=O)(O)O [Estramustine-17-phosphate] |  |  |  |  |  |  |  |  |  |  |  |  |  |  | redissolve the already formed precipitate | permit the passage in solution of the drug | avoid the reprecipitation
